Where a name gives a salt, the structure may show the parent alone. Read-outs that look alike come from different tables or passages of the source.
Columns and labels:
Assay type in all cases: biochemical
[1] = biological target: T1, human two-chain tPA (Homo sapiens, UniProt P00750); assay: tPA Indirect (Plasminogen-Linked) Assay (tPA Direct Assay result where lower); conditions: for tPA/UPA ratio: ratio with respect to urokinase indirect plasminogen-linked IC50, larger = greater specificity for urokinase; for IC50: tPA Indirect Plasminogen-Linked Assay, in rare cases direct assay result if lower, read-out: tPA IC50; for inhibition at 1000 µM: read-out: tPA activity observed relative to inhibitor-free controls
T1 construct: human two-chain tPA was substituted for urokinase; purchased American Diagnostica
Source text: (iv) Both direct and plasminogen-linked pNA assays for tPA, the other mammalian plasminogen activator and the key initiator of blood clot dissolution or fibrinolysis. Since urokinase and tPA share an absolute specificity for the same peptide bond in plasminogen, urokinase inhibitors designed to block cellular invasiveness must be highly specific for urokinase over tPA in order to avoid serious thrombotic side effects secondary to undesired blockage of normal fibrinolysis. […] Spectrozyme tPA®, American Diagnostica) was substituted for urokinase substrate.

[2] = biological target: T2, urokinase (Homo sapiens, UniProt P00749); assay: Urokinase Indirect (Plasminogen-Linked) Assay; conditions: Table 3 column 4, simple number, unit inferred; read-out: uPA Indirect (plasminogen-linked) IC50
T2 construct: human high molecular weight urokinase; purchased American Diagnostica, Greenwich, Conn
Experimental: (ii) An indirect plasminogen-linked assay in which urokinase proteolytically activates plasminogen, forming plasmin which then cleaves a synthetic tripeptide pNA plasmin substrate.
Incubations were carried out at 22° C. for 45-60 minutes or until adequate color developed. Color qas quantitated as in the urokinase direct assay above. Parallel incubations were performed with and without plasminogen, and corrected absorbance values were obtained by subtracting values obtained without plasminogen from those obtained with plasminogen, eliminating any contribution of direct cleavage, if any, of plasmin substrate by urokinase.

[3] = biological target: T3, human plasmin (Homo sapiens, UniProt P00747); assay: Plasmin Assay; conditions: for PLM/uPA ratio: ratio with respect to urokinase indirect plasminogen-linked IC50, larger = greater specificity for urokinase; for inhibition at 1000 µM: read-out: PLASMIN activity observed relative to inhibitor-free controls; for IC50: read-out: PLASMIN IC50
T3 construct: plasmin, the potent general protease produced by cleavage of plasminogen by either urokinase or tPA; purchased American Diagnostica
Experimental: (v) A chromogenic pNA assay for plasmin, the potent general protease produced by cleavage of plasminogen by either urokinase or tPA. Although urokinase initiates cellular invasiveness by generating plasmin, the additional importance of plasmin in tPA-mediated fibrinolysis dictates that plasmin itself should be free from inhibition by urokinase inhibitors designed as anti-invasiveness agents. […] All other assay conditions, as well as methods of color quantitation, were carried out as described above for the urokinase direct assay.

[4] = biological target: T4, human high molecular weight urokinase (Homo sapiens, UniProt P00749); assay: Urokinase Direct Assay; conditions: read-out: uPA Direct: percentage of residual urokinase activity relative to inhibitor-free controls; heading: uPA Direct: percentage of residual urokinase activity relative to inhibitor-free controls; inhibitor concentration of 1 mM
T4 construct: human high molecular weight urokinase; purchased American Diagnostica, Greenwich, Conn
Experimental: (i) A direct chromogenic assay in which urokinase cleaves a synthetic tripeptide p-nitroanilide (pNA) urokinase substrate.
Incubations were carried out at 37° C. for approximately 2 hours or until adequate yellow color developed. Color was quantitated by measuring absorbance at 405 nm (A405) using a Titertek Multiskan MCC/340 MK II microtiter plate spectrophotometer.

T1 sequence (P00750 311-562 limits assumed): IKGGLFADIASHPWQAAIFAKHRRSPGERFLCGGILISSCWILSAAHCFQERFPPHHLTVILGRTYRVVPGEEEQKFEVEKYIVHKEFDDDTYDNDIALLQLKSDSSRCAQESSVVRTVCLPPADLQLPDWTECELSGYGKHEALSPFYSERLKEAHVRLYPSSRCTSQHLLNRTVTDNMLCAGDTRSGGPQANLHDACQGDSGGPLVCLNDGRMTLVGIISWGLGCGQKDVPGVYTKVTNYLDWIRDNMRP
T1 sequence (P00750 36-310 limits assumed): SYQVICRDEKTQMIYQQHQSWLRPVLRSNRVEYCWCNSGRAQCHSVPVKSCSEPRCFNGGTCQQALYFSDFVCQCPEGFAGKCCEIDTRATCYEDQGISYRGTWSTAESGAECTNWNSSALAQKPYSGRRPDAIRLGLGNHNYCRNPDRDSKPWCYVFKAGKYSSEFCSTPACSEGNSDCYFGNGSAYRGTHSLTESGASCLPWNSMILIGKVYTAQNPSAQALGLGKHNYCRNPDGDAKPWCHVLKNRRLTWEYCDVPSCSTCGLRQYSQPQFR
T3 sequence (P00747 581-810 limits assumed): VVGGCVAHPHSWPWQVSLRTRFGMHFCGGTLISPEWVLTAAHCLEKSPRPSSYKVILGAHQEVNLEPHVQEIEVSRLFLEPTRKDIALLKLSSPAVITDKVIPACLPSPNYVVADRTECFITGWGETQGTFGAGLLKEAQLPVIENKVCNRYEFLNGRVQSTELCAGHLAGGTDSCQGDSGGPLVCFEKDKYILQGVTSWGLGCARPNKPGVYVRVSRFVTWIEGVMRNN
T3 sequence (P00747 97-580 limits assumed): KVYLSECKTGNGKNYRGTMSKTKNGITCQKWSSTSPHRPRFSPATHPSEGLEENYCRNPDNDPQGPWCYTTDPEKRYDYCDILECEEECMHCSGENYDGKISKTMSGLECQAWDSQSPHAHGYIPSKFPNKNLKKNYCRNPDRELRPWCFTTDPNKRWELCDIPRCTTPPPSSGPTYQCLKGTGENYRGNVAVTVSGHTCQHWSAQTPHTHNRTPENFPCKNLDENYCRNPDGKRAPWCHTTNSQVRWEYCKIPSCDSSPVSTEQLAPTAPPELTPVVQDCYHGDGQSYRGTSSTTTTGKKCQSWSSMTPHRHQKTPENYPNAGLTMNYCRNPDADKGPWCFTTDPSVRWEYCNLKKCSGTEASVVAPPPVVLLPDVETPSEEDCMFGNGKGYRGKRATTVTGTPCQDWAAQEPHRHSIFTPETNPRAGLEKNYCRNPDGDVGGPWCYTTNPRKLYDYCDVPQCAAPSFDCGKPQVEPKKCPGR

SMILES | tPA/UPA ratio [1] | IC50 [1] [µM] | IC50 [2] [nM] | PLM/uPA ratio [3] | inhibition at 1000 µM [3] [%] | inhibition at 1000 µM ([1]; 1 mM inhibitor) [%] | residual urokinase activity at 1000 µM [4] [%] | inhibition at 1000 µM ([3]; 1 mM inhibitor) [%] | IC50 [3] [µM] | inhibition at 1000 µM [1] [%]
Cl.N=C(N)c1cc2cc(-c3ccccc3)ccc2s1 [Compound 124, 5-Phenylbenzo[b]thiophene-2-carboxamidine hydrochloride] | 215 | 258 | 1200 | ≥ 10000 | 90 |  |  |  |  | 
Cl.N=C(N)c1cc2ccsc2s1 [Compound 321, Thieno[2,3-b]thiophene-2-carboxamidine hydrochloride] | ≥ 500 |  |  | ≥ 1000 |  | 74 | 4.1 | 88 |  | 
CCCCC=Cc1cccc2sc(C(=N)N)cc12 [Compound 29, 4-(E/Z-Hex-1-enyl)benzo[b]thiophene-2-carboxamidine hydrochloride] | 250 | 85 | 340 | 718 |  |  |  |  | 244 | 
Cl.N=C(N)c1cc2c(-c3ccccc3)cccc2s1 [Compound 44, 4-Phenylbenzo[b]thiophene-2-carboxamidine hydrochloride] | 58 | 64 | 1100 | 800 |  |  |  |  | 881 | 
Cl.N=C(N)c1cc2cc(-c3ccco3)ccc2s1 [Compound 126, 5-(Furan-2-yl)benzo[b]thiophene-2-carboxamidine hydrochloride] | 200 | 140 | 700 | 763 |  |  |  |  | 534 | 
C=Cc1cccc2sc(C(=N)N)cc12.Cl [Compound 17, 4-Ethenylbenzo[b]thiophene-2-carboxamidine hydrochloride] | 6.3 | 8.6 | 1400 | 42 |  |  |  |  | 57 | 
Cl.N=C(N)c1cc2c(-c3cccs3)cccc2s1 [Compound 50, 4-(Thien-2-yl)benzo[b]thiophene-2-carboxamidine hydrochloride] | 56 | 28 | 500 | 762 |  |  |  |  | 381 | 
CCCc1cccc2sc(C(=N)N)cc12.Cl [Compound 9, 4-Propylbenzo[b]thiophene-2-carboxamidine hydrochloride] | 250 | 165 | 660 | 902 |  |  |  |  | 595 | 
CCc1cccc2sc(C(=N)N)cc12.Cl [Compound 7, 4-Ethylbenzo[b]thiophene-2-carboxamidine hydrochloride] | 263 | 184 | 700 | 610 |  |  |  |  | 427 | 
N=C(N)c1cc2cc(C=CC3CC3)ccc2s1 [Compound 121, 5-(E/Z-2-Cyclopropylethenyl)benzo[b]thiophene-2-carboxamidine hydrochloride] | 313 | 175 | 560 | 1875 |  |  |  |  | 1050 | 
Cl.Cl.N=C(N)c1cc2c(-c3cccnc3)cccc2s1 [Compound 48, 4-(Pyrid-3-yl)benzo[b]thiophene-2-carboxamidine bis-hydrochloride] | 152 | 85 | 560 | 609 |  |  |  |  | 341 | 
C#Cc1cccc2sc(C(=N)N)cc12.Cl [Compound 39, 4-Ethynylbenzo[b]thiophene-2-carboxamidine hydrochloride] | 436 | 288 | 660 | 661 |  |  |  |  | 704 | 
N=C(N)c1ccc(/C=C/c2cc3ccc4sc(C(=N)N)cc4c3s2)cc1 [Compound 209, 5-[E-2-(4-Carboxamidinophenyl)ethenyl]thieno[4,5-b]benzo[b]thiophene-2-carboxamidine bis-hydrochloride] |  |  | 270 |  |  |  |  |  |  | 
N=C(N)c1ccc(-c2ccc(-c3cccc4sc(C(=N)N)cc34)o2)cc1 [Compound 53, 4-[5-(4-carboxamidinophenyl)fur-2-yl]benzo[b]thiophene-2-carboxamidine bis-hydrochloride] | 45 | 4.1 | 92 | 511 |  |  |  |  | 47 | 
CC(C)/C=C/c1cccc2sc(C(=N)N)cc12.Cl [Compound 23, 4-(E-3-Methylbut-1-enyl)benzo[b]thiophene-2-carboxamidine hydrochloride] | 315 | 41 | 130 | 4838 |  |  |  |  | 629 | 
Cl.N=C(N)c1cc2cc(I)ccc2s1 [Compound 104, 5-Iodobenzo[b]thiophene-2-carboxamidine hydrochloride] | ≥ 500 |  | 2400 | ≥ 5000 | 96 |  |  |  |  | 63
CCCCCCc1cccc2sc(C(=N)N)cc12.Cl [Compound 13, 4-(Hexyl)benzo[b]thiophene-2-carboxamidine hydrochloride] | 214 | 90 | 420 | 464 |  |  |  |  | 195 | 
N=C(N)c1cc2cc(-c3cc4ccccc4s3)ccc2s1 [Compound 128, 5-(Benzo[b]thien-2-yl)benzo[b]thiophene-2-carboxamidine hydrochloride] |  |  | 940 |  |  |  |  |  |  | 
CSc1cccc2sc(C(=N)N)cc12.Cl [Compound 58, 4-(Methylthio)benzo[b]thiophene-2-carboxamidine hydrochloride] | 413 | 231 | 560 | 954 |  |  |  |  | 534 | 
C=CCc1cccc2sc(C(=N)N)cc12.Cl [Compound 19, 4-(Prop-2-enyl)benzo[b] thiophene-2-carboxamidine hydrochloride] | 127 | 57 | 450 | 1120 |  |  |  |  | 505 | 
Cl.N=C(N)c1cc2c(-c3ccc(-c4ccccc4)o3)cccc2s1 [Compound 78, 4-(5-Phenylfur-2-yl)benzo[b]thiophene-2-carboxamidine hydrochloride] | 53 | 26 | 490 | ≈ 500 |  |  |  |  | ~250 | 
N=C(N)c1cc2c(/C=C/c3cccc4sc(C(=N)N)cc34)cccc2s1 [Compound 73, 4-[E-2-(2-Carboxamidinobenzothien-4-yl)ethenyl]benzo[b]thiophene-2-carboxamidine bis-hydrochloride] | 15.9 | 2.7 | 170 | 147 |  |  |  |  | 25 | 
Cl.N=C(N)c1cc2c(/C=C/c3ccco3)cccc2s1 [Compound 67, 4-[E-2-(Furan-2-yl)ethenyl]benzo[b]thiophene-2-carboxamidine hydrochloride] | 133 | 26 | 195 | 1000 |  |  |  |  | 195 | 
N=C(N)c1ccc(/C=C/c2ccc3sc(C(=N)N)cc3c2)cc1 [Compound 122, 5-[E-2-(4-Carboxamidinophenyl)ethenyl]benzo[b]thiophene-2-carboxamidine bis-hydrochloride] | 1.48 | 1.45 | 980 | 367 |  |  |  |  | 360 | 
Cl.N=C(N)c1cc2c(-c3ccco3)cccc2s1 [Compound 49, 4-(Furan-2-yl)benzo[b]thiophene-2-carboxamidine hydrochloride] | 53 | 19 | 360 | 1000 |  |  |  |  | 360 | 
Cl.N=C(N)c1cc2ccc3ccccc3c2s1 [Compound 312, Naphtho[1,2-b]thiophene-2-carboxamidine hydrochloride] | > 50 | > 100 | 1900 | > 50 |  |  |  |  | > 100 | 
C=Cc1ccc2sc(C(=N)N)cc2c1.Cl [Compound 114, 5-(Ethenyl)benzo[b]thiophene-2-carboxamidine hydrochloride] | 23 | 37 | 1600 | 180 |  |  |  |  | 288 | 
Cl.N=C(N)c1cc2c(-c3cc4ccccc4o3)cccc2s1 [Compound 51, 4-(Benzo[b]furan-2-yl)benzo[b]thiophene-2-carboxamidine hydrochloride] | 200 | 112 | 560 | 1330 |  |  |  |  | 745 | 
